The record followed here is patent publication US20240398970A1, “B7-H3 TARGETING ANTIBODY-DRUG CONJUGATE, AND PREPARATION METHOD THEREFOR AND USE THEREOF” (priority 2020, published 2024).

Numbered stars: 1 amine (or outer) side, 2 acyl side, 3 side chain; on linkers, the order of the positions; unused ones are H or OH. Square brackets hold non-standard residues; d marks the D form. Peptide text beside a SMILES is read from it. * marks the point of attachment. X1 = CC[C@@]1(O)C(=O)OCc2c1cc1n(c2=O)Cc2c-1nc1cc(F)c(C)c3c1c2C(N*)CC3; Hexanoyl(6-maleimido) = O=C1C=CC(=O)N1CCCCCC(=O)*; NHCH2OCH2CO = O=C(COCN[*:1])[*:2]

In one series the test system is NCI-N87 cell line. The experiment in a line: Killing activity on NCI-N87 before and after enzyme digestion by cathepsin B system. It is filed as cell-based. The conditions noted are these: NCI-N87, 144 hours, after cathepsin B system pH 5.0, 37° C., 4 hours; read-out: IC50 (based on SN-38 equivalent) After Enzyme Digestion. The procedure:
NCI-N87 cell line was selected as the experimental cell lines. After the sample was incubated in cathepsin B system (100 mM sodium acetate-acetic acid buffer, 4 mM dithiothreitol, pH 5.0) at 37° C. for 4 hours, the obtained sample was diluted with culture medium to different concentrations. 8 concentrations (1.5 to 10-fold dilution) were set from 70 nM to 0.003 nM of SN-38 concentration. […] The IC50 value was calculated by reading the […] data after chemical luminescent staining with CellTiter-Glo® Luminescent Cell Viability Assay.

The nature of series [1]: Coupling of linker-drug conjugates with other/different antibodies. It is filed as physicochemical. The conditions noted are these: coupling with antibodies other than or including FDA016.
The target in another series is cathepsin B (Homo sapiens, UniProt P07858). The experiment in a line: In vitro enzyme digestion of linker-drug conjugates. It is filed as in vitro ADME. The settings on record: pH 5.0 to 7.0. The procedure:
The linker-drug conjugate (LE14 and GGFG-Dxd) was co-incubated with cathepsin B in three different pH (5.0, 6.0, 7.0) buffers. Samples were taken at different time points and entered into a high-performance liquid chromatography-mass spectrometry instrument. The external standard method (with DXD as the external standard) was used to determine the release percentage of the drug.

In the case of `CCc1c2c(nc3ccc(O)cc13)-c1cc3c(c(=O)n1C2)COC(=O)[C@]3(O)CC` [SN-38, 7-ethyl-10-hydroxycamptothecin], in the series with NCI-N87 cell line, the IC50 was determined as 7.45 nM.
In the case of `CC[C@@]1(O)C(=O)OCc2c1cc1n(c2=O)Cc2c-1nc1cc(F)c(C)c3c1c2C(NC(=O)COCNC(=O)CNC(=O)[C@H](Cc1ccccc1)NC(=O)CNC(=O)CNC(=O)CCCCCN1C(=O)C=CC1=O)CC3` (stereo partly shown) [GGFG-Dxd] ({Hexanoyl(6-maleimido)}-GGFG[NHCH2OCH2CO]-X1), in series [1], the “Aggregation ratio when coupled with other/different antibodies” value is reported as “high aggregation ratio” and the “Precipitation when coupled with other/different antibodies” value was “produced precipitation”. Also, the “Speed of enzyme digestion” value on cathepsin B is given as “slow speed of enzyme digestion”.

What is called IC50 is the point on the concentration scale where inhibition reaches its midpoint.
